Key:
Assay in all cases: biochemical
Design in all cases: in vitro kinase selectivity panel, protein and lipid kinases, single concentration, ATP at Km
Details in all cases: ATP at Km
CDK5/p35(h) = target: T1, CDK5/p35(h) (Homo sapiens, UniProt Q00535)
T1 construct: p35
Outline: (§1)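 Single-point screen against a protein and lipid kinase panel: inhibitor at 1 μM. ATP concentration for every kinase equivalent to its Km.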

CSK(h) = CSK(h) (Homo sapiens, UniProt P41240)
Outline: as §1

DYRK2(h) = DYRK2(h) (Homo sapiens, UniProt Q92630)
Outline: as §1

EGFR(L861Q)(h) = EGFR(L861Q)(h) (Homo sapiens, UniProt P00533, L861Q)
Chain of EGFR(L861Q)(h) (P00533 whole entry L861Q): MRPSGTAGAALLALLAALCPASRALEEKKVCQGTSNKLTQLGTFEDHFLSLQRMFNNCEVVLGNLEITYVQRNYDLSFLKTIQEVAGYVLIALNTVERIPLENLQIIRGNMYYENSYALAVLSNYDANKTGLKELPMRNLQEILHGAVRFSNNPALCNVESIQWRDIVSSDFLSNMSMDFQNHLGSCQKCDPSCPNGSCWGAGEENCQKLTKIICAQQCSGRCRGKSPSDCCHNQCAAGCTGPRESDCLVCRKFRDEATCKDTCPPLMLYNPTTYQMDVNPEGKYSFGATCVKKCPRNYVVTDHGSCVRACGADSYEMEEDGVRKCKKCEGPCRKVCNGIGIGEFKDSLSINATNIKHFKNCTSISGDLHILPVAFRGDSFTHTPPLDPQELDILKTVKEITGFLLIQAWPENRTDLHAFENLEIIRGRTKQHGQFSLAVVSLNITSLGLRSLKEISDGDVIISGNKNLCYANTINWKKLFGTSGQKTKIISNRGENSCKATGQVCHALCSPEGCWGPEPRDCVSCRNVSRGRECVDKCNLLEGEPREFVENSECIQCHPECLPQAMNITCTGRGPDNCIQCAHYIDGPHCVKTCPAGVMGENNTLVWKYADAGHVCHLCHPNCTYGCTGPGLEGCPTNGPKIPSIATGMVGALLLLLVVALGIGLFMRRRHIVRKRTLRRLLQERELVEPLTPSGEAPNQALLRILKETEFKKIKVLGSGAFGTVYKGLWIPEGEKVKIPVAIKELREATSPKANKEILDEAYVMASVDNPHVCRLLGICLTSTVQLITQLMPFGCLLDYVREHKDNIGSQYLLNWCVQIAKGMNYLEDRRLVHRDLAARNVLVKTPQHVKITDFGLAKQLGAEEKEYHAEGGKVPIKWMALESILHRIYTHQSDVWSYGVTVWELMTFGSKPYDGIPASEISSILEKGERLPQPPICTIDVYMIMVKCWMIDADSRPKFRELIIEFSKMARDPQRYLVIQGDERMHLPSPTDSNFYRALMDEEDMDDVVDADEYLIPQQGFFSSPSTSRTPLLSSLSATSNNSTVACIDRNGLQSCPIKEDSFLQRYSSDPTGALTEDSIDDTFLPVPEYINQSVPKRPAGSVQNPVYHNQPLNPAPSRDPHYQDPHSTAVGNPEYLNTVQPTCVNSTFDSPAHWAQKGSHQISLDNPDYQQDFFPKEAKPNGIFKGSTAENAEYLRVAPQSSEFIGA
Outline: as §1

FGFR2(h) = FGFR2(h) (Homo sapiens, UniProt P21802)
Outline: as §1

HIPK3(h) = HIPK3(h) (Homo sapiens, UniProt Q9H422)
Outline: as §1

Hck(h) = Hck(h) (Homo sapiens, UniProt P08631)
Chain of Hck(h) (P08631 whole entry): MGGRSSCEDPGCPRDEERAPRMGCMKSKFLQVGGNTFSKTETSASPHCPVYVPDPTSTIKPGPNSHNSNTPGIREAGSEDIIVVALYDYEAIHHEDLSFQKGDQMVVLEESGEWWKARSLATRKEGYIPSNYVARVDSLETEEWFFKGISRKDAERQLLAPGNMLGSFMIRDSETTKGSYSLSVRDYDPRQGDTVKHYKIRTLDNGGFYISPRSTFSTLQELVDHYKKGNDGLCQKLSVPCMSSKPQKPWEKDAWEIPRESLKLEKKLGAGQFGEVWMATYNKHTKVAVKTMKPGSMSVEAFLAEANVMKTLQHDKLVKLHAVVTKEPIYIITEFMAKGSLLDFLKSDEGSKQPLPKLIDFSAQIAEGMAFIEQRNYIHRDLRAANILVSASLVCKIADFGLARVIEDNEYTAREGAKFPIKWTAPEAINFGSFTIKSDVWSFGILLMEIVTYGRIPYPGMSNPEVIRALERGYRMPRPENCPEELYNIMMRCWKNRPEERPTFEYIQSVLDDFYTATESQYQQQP
Outline: as §1

IKKα(h) = target: T2, IKKα(h) (Homo sapiens, UniProt O15111)
T2 construct: gene CHUK
T2 sequence (O15111 whole entry): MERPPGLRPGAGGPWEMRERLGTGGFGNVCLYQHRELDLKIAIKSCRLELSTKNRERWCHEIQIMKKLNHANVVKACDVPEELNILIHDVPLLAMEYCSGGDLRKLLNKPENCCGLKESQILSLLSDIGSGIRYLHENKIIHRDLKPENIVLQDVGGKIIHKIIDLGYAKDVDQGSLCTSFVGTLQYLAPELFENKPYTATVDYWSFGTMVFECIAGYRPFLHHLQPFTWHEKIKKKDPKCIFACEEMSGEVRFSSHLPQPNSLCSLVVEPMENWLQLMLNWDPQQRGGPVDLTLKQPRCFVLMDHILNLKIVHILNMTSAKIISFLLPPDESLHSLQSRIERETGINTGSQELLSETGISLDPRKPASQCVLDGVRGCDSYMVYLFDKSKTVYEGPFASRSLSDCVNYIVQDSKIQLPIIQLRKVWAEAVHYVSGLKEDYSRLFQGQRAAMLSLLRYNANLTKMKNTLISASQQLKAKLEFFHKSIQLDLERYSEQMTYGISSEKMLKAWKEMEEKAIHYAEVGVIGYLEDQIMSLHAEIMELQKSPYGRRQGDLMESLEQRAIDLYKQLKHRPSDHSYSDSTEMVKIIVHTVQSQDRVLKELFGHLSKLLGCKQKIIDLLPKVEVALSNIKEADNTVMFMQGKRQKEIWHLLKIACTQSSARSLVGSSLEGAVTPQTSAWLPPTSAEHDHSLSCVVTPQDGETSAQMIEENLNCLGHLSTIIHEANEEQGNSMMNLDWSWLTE
Outline: as §1

JAK2(h) = JAK2(h) (Homo sapiens, UniProt O60674)
Outline: as §1

LIMK1(h) = LIMK1(h) (Homo sapiens, UniProt P53667)
Outline: as §1

MELK(h) = MELK(h) (Homo sapiens, UniProt Q14680)
Outline: as §1

PDGFRβ(h) = target: T3, PDGFRβ(h) (Homo sapiens, UniProt P09619)
T3 construct: gene PDGFRB
Outline: as §1

PDK1(h) = target: T4, PDK1(h) (Homo sapiens, UniProt O15530)
T4 construct: gene PDPK1
T4 sequence (O15530 whole entry): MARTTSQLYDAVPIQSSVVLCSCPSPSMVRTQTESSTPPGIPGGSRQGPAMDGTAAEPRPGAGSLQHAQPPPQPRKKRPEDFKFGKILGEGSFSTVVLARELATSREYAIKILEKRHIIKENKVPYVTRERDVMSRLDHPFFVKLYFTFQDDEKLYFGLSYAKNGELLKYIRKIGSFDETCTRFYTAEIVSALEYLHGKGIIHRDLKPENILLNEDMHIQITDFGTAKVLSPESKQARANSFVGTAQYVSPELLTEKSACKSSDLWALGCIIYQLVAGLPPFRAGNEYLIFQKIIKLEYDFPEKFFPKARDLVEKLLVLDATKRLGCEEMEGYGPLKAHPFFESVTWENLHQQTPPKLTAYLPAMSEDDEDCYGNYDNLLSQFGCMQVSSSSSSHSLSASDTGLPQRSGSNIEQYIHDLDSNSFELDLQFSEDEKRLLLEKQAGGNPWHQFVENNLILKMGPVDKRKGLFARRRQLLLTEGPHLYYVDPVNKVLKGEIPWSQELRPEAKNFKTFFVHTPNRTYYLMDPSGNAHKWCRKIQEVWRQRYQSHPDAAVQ
Outline: as §1

PIP4K2A = PIP4K2A (Homo sapiens, UniProt P48426)
Chain of PIP4K2A (P48426 whole entry): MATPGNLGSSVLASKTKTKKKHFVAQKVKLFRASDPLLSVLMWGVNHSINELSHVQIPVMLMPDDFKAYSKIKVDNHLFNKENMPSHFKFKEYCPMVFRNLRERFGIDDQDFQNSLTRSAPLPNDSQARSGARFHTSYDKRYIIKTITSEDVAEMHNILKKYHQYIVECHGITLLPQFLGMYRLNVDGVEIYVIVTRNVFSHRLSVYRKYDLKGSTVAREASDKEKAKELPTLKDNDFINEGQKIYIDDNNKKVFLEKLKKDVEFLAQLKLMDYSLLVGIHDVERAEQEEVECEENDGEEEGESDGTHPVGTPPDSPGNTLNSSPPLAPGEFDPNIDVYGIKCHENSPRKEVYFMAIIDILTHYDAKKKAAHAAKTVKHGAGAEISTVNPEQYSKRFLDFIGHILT
Outline: as §1

ROCK-I(h) = target: T5, ROCK-I(h) (Homo sapiens, UniProt Q13464)
T5 construct: gene ROCK1
Outline: as §1

Ret(h) = Ret(h) (Homo sapiens, UniProt P07949)
Outline: as §1

Tie2 (h) = target: T6, Tie2 (h) (Homo sapiens, UniProt Q02763)
T6 construct: gene TEK
T6 sequence (Q02763 whole entry): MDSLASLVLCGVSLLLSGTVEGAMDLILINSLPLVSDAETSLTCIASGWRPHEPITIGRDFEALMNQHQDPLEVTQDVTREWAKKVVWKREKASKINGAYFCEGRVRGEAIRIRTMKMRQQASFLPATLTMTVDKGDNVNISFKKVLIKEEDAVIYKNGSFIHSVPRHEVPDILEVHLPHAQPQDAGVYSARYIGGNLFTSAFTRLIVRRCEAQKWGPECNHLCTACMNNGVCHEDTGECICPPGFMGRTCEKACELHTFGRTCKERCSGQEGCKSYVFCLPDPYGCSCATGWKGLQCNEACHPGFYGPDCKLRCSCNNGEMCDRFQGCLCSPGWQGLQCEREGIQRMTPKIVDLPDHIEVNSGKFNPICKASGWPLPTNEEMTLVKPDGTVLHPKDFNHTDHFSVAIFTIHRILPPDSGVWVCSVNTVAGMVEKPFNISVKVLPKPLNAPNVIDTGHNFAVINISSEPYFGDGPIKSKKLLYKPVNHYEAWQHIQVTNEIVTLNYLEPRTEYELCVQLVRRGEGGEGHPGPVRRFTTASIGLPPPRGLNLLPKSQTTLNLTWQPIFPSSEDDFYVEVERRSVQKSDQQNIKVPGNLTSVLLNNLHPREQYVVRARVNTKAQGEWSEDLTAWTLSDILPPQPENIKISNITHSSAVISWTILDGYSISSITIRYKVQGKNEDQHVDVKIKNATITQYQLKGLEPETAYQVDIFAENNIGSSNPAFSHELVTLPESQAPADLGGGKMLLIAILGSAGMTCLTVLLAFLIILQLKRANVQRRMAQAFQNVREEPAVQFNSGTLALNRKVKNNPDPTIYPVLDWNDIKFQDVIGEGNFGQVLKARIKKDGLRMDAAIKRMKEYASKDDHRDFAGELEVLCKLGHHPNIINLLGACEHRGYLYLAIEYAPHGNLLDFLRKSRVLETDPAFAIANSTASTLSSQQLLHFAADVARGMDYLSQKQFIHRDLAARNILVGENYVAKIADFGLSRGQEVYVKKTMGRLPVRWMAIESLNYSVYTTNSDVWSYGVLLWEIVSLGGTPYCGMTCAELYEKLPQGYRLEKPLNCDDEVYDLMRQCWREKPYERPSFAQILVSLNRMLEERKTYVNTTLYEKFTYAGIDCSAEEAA
Outline: as §1

cKit(V560G)(h) = target: T7, cKit(V560G)(h) (Homo sapiens, UniProt P10721, V560G)
T7 construct: gene KIT
Outline: as §1

Chain of CSK(h) (P41240 whole entry): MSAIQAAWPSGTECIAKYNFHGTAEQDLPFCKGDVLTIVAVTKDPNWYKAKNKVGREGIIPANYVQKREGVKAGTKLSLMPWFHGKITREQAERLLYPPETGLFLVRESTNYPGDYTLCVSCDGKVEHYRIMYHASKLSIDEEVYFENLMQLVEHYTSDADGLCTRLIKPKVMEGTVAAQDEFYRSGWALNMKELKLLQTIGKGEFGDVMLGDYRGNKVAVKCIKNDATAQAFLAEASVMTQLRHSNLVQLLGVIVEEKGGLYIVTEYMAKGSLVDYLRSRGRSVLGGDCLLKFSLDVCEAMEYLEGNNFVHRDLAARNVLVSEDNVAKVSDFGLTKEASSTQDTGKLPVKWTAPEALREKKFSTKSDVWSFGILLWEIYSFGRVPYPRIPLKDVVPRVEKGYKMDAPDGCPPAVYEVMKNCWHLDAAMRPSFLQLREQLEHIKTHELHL

In the case of `CC[C@@H](N)CNc1ccnc(-c2cc(-c3cnn(C)c3)ccc2O)n1` [CRT0066101], the inhibition at 1 µM (CDK5/p35(h)) is reported as 95%, the inhibition at 1 µM (CSK(h)) is reported as 7% and the inhibition at 1 µM (DYRK2(h)) is reported as 94%. It also gave an inhibition at 1 µM (EGFR(L861Q)(h)) of 10%, an inhibition at 1 µM (FGFR2(h)) of 5% and an inhibition at 1 µM (HIPK3(h)) of 14%. It also gave an inhibition at 1 µM (Hck(h)) of 4%, an inhibition at 1 µM (IKKα(h)) of 66% and an inhibition at 1 µM (JAK2(h)) of 10%. It also gave an inhibition at 1 µM (LIMK1(h)) of 0%, an inhibition at 1 µM (MELK(h)) of 55% and an inhibition at 1 µM (PDGFRβ(h)) of -1%. The inhibition at 1 µM (PDK1(h)) was -17%, the inhibition at 1 µM (PIP4K2A) was -22% and the inhibition at 1 µM (ROCK-I(h)) was 4%. The inhibition at 1 µM (Ret(h)) was 0%, the inhibition at 1 µM (Tie2 (h)) was 4% and the inhibition at 1 µM (cKit(V560G)(h)) was 24%.

— PMC5391474, “Investigation of the Role of Protein Kinase D in Human Rhinovirus Replication” (Journal of Virology, 2017)
